Test results as given in PMC6041819, “Synthesis of novel benzenesulfamide derivatives with inhibitory activity against human cytosolic carbonic anhydrase I and II and Vibrio cholerae α- and β-class enzymes” (Journal of Enzyme Inhibition and Medicinal Chemistry, 2018).

Columns and labels:
Assay in all cases: stopped-flow CO2 hydrase assay
Format in all cases: biochemical
hCA II = biological target: T1, hCA II (Homo sapiens, UniProt P00918)
T1 construct: gene CA2; recombinant, obtained in-house; cytosolic isoform
From the text: stopped-flow CO2 hydrase assay on hCA II

VchCAβ = biological target: T2, VchCAβ (Vibrio cholerae, UniProt Q9KUD6)
T2 construct: gene VC_0586

VchCAα = biological target: T3, VchCAα (Vibrio cholerae, UniProt Q9KMP6)
T3 construct: gene VC_A0274

hCA I = biological target: T4, hCA I (Homo sapiens, UniProt P00915)
T4 construct: gene CA1; recombinant, obtained in-house; cytosolic isoform
From the text: stopped-flow CO2 hydrase assay on hCA I

T2 sequence (Q9KUD6 1-222): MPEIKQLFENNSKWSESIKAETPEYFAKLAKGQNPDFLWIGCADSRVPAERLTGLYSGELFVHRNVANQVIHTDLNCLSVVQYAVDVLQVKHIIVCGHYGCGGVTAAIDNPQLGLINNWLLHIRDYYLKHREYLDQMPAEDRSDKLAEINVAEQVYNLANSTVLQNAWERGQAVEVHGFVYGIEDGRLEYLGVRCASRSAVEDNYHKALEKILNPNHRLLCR
T4 sequence (P00915 2-261): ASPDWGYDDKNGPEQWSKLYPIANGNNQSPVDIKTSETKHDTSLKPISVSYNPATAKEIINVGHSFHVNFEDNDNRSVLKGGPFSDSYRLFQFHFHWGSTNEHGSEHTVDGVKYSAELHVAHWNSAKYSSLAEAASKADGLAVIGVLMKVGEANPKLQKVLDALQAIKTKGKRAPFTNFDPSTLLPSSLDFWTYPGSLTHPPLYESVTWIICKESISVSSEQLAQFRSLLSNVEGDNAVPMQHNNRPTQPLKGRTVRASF
T3 sequence (Q9KMP6 21-239 limits assumed): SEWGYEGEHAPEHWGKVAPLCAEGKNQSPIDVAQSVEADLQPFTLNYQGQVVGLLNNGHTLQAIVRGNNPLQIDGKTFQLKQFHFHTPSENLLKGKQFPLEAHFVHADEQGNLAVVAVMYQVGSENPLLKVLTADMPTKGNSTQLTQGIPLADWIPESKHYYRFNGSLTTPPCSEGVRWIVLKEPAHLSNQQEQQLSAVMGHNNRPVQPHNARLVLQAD

SMILES | Ki (hCA II) [nM] | Ki (VchCAβ) [nM] | Ki (VchCAα) [nM] | Ki (hCA I) [nM]
NS(=O)(=O)Nc1ccccc1S(=O)(=O)NCC(=O)N1CCN(C(c2ccc(F)cc2)c2ccc(F)cc2)CC1 [6k, N-(2-(4-(bis(4-Fluorophenyl)methyl)piperazin-1-yl)-2-oxoethyl)-2-(sulfamoylamino)benzenesulfonamide] | 1430 | > 10000 | 1750 | 338
NS(=O)(=O)Nc1ccccc1S(=O)(=O)N1CCC(C(=O)N2CCN(C(c3ccccc3)c3ccccc3)CC2)CC1 [6e, (4-Benzhydrylpiperazin-1-yl)(1-((2-sulfamoylaminophenyl)sulfonyl)piperidin-4-yl)methanone] | 1360 | > 10000 | 879 | 578
NS(=O)(=O)Nc1cccc(S(=O)(=O)N2CCN(C(c3ccccc3)c3ccccc3)CC2)c1 [6a, 1-Benzhydryl-4-((3-sulfamoylaminophenyl)sulfonyl)piperazine] | 417 | 4680 | 334 | 66.2
NS(=O)(=O)Nc1ccc(S(=O)(=O)N2CCC(C(=O)N3CCN(C(c4ccc(F)cc4)c4ccc(F)cc4)CC3)CC2)cc1 [6p, (4-(bis(4-Fluorophenyl)methyl)piperazin-1-yl)(1-((4-sulfamo-ylaminophenyl)sulfonyl)piperidin-4-yl)methanone] | 182 | 4530 | 398 | 49.1
NS(=O)(=O)Nc1ccc(S(=O)(=O)N2CCC(C(=O)N3CCN(C(c4ccccc4)c4ccccc4)CC3)CC2)cc1 [6g, (4-Benzhydrylpiperazin-1-yl)(1-((4-sulfamoylaminophenyl)sulfonyl)piperidin-4-yl)methanone] | 227 | 2540 | 140 | 601
NS(=O)(=O)Nc1ccccc1S(=O)(=O)N1CCN(C(c2ccc(F)cc2)c2ccc(F)cc2)CC1 [6h, 1-(Bis(4-Fluorophenyl)methyl)-4-((2-sulfamoylaminophenyl)sulfonyl)piperazine] | 1170 | > 10000 | 2800 | 843
NS(=O)(=O)Nc1ccc(S(=O)(=O)N2CCN(C(c3ccccc3)c3ccccc3)CC2)cc1 [6b, 1-Benzhydryl-4-((4-sulfamoylaminophenyl)sulfonyl)piperazine] | 359 | 1880 | 236 | 555
NS(=O)(=O)Nc1cccc(S(=O)(=O)N2CCN(C(c3ccc(F)cc3)c3ccc(F)cc3)CC2)c1 [6i, 1-(Bis(4-Fluorophenyl)methyl)-4-((3-sulfamoylaminophenyl)sulfonyl)piperazine] | 389 | 1740 | 588 | 75
NS(=O)(=O)Nc1ccccc1S(=O)(=O)N1CCC(C(=O)N2CCN(C(c3ccc(F)cc3)c3ccc(F)cc3)CC2)CC1 [6n, (4-(bis(4-Fluorophenyl)methyl)piperazin-1-yl)(1-((2-sulfamo-ylaminophenyl)sulfonyl)piperidin-4-yl)methanone] | 590 | > 10000 | 3750 | 683
NS(=O)(=O)Nc1cccc(S(=O)(=O)NCC(=O)N2CCN(C(c3ccccc3)c3ccccc3)CC2)c1 [6d, N-(2-(4-Benzhydrylpiperazin-1-yl)-2-oxoethyl)-3-(sulfamoylamino)benzenesulfonamide] | 396 | 3780 | 95.7 | 58.1
NS(=O)(=O)Nc1ccc(S(=O)(=O)N2CCN(C(c3ccc(F)cc3)c3ccc(F)cc3)CC2)cc1 [6j, 1-(Bis(4-Fluorophenyl)methyl)-4-((4-sulfamoylaminophenyl)sulfonyl)piperazine] | 353 | 4350 | 274 | 64.6
NS(=O)(=O)Nc1cccc(S(=O)(=O)NCC(=O)N2CCN(C(c3ccc(F)cc3)c3ccc(F)cc3)CC2)c1 [6l, N-(2-(4-(bis(4-Fluorophenyl)methyl)piperazin-1-yl)-2-oxoethyl)-3-(sulfamoylamino)benzenesulfonamide] | 218 | > 10000 | 91.4 | 71.1
NS(=O)(=O)Nc1ccc(S(=O)(=O)NCC(=O)N2CCN(C(c3ccc(F)cc3)c3ccc(F)cc3)CC2)cc1 [6m, N-(2-(4-(bis(4-Fluorophenyl)methyl)piperazin-1-yl)-2-oxoethyl)-4-(sulfamoylamino)benzene sulfonamide] | 208 | 4670 | 106 | 47.8
NS(=O)(=O)Nc1cccc(S(=O)(=O)N2CCC(C(=O)N3CCN(C(c4ccc(F)cc4)c4ccc(F)cc4)CC3)CC2)c1 [6o, (4-(bis(4-Fluorophenyl)methyl)piperazin-1-yl)(1-((3-sulfamoylaminophenyl)sulfonyl)piperidin-4-yl)methanone] | 663 | 1580 | 497 | 72
NS(=O)(=O)Nc1ccccc1S(=O)(=O)NCC(=O)N1CCN(C(c2ccccc2)c2ccccc2)CC1 [6c, N-(2-(4-Benzhydrylpiperazin-1-yl)-2-oxoethyl)-2-(sulfamoylamino)benzenesulfonamide] | 850 | > 10000 | 931 | 840
NS(=O)(=O)Nc1cccc(S(=O)(=O)N2CCC(C(=O)N3CCN(C(c4ccccc4)c4ccccc4)CC3)CC2)c1 [6f, (4-Benzhydrylpiperazin-1-yl)(1-((3-sulfamoylaminophenyl)sulfonyl)piperidin-4-yl)methanone] | 576 | 3790 | 654 | 43.1
